Like-named read-outs stand apart in the source and are kept apart here.
Legend:
Format in all cases: cell-based
[1] = tested on: human neonatal skin fibroblasts; experiment: UV stress (11 J/cm^2), neutral red uptake viability; conditions: for viability at 5000 µg/mL / viability at 10000 µg/mL / viability at 15000 µg/mL: Homo sapiens, Skin fibroblast, light or radiation study, read-out: Percentage of viability following UV stress (11 J/cm^2); for viability at 5000 µg/mL: 5 mg/mL; for viability at 10000 µg/mL: 10 mg/mL; for viability at 15000 µg/mL: 15 mg/mL
Description: (§1) The neutral red uptake assay was used for the determination of cell viability. This assay is based on the ability of viable cells to incorporate and bind the supravital dye neutral red in its lysosomes. So, only the viable cells are dyed. At different times after the stress assay (T0), the plates were incubated with neutral red solution for 3.5 hours. The cells are subsequently washed, the dye is extracted in each well and the absorbance is read using a spectrophotometer.
(§2) For sampling, 1 mL of DMEM (without phenol red indicator) with neutral red (OD=0.110) was added to the cells for 3.5 hours (37° C., 10% CO2). After incubation, the medium was removed, two washes of PBS were realized and 1 mL of extraction solution (absolute ethanol 49%, ultrapure water 49%, glacial acetic acid 2%) was added. Plates were placed 15 minutes on rotary shaker in the dark before reading OD at 540 nm.
(§3) The percentage of viability for each assay was calculated as follow: % viability assay=(OD540 nm of tested solution−blank)*100/(OD540 nm of positive control−blank).

[2] = tested on: human neonatal skin fibroblasts; experiment: Oxidative stress (H2O2), neutral red uptake viability; conditions: for viability at 5000 µg/mL / viability at 10000 µg/mL / viability at 15000 µg/mL: Homo sapiens, Skin fibroblast, read-out: Percentage of viability following oxidative stress; for viability at 5000 µg/mL: 5 mg/mL; for viability at 10000 µg/mL: 10 mg/mL; for viability at 15000 µg/mL: 15 mg/mL
Description: (§4) Induced stresses were performed as follow: Starvation
Then oxidative stress was performed as follow: 0.2 ml of solution at 500 μM of H2O2 was added in wells except for negative control where 0.2 ml of culture medium were added.
as §1, §2, §3

[3] = tested on: human nasal epithelial cells (RPMI2650, ATCC CCL-30); experiment: Starvation (serum deprivation) stress, neutral red uptake viability; conditions: for viability at 10000 µg/mL: Homo sapiens, 10 mg/mL, read-out: Percentage of viability
Description: as §4, §1, §2
(§5) The OD540 nm average value of positive control was considered as 100% of viability.
as §3

[4] = tested on: human neonatal skin fibroblasts (CCD-27SK, ATCC CRL-1475); experiment: as above; conditions: for Percentage of viability / viability at 5000 µg/mL: 5 mg/mL (Table 2); for viability at 5000 µg/mL: Homo sapiens, CCD-27Sk, read-out: Percentage of viability
Description: as §4, §1, §2, §5, §3

C[C@H](NC(=O)[C@H](C)NC(=O)[C@@H](N)CCCCNCC(F)(F)C1(O)O[C@H](CO)[C@H](O)[C@H](O)[C@H]1O)C(=O)O (stereo partly shown) [Compound 19]
preservative/protective effect against UV stress (in words) [1]: preservative/protective effect against UV stress | viability at 5000 µg/mL ([1]; 1 h after irradiation): 53% | viability at 10000 µg/mL ([1]; 1 h after irradiation): 70% | viability at 15000 µg/mL ([1]; 1 h after irradiation): 67% | viability at 5000 µg/mL ([1]; 3 h after irradiation): 71% | viability at 10000 µg/mL ([1]; 3 h after irradiation): 80% | viability at 15000 µg/mL ([1]; 3 h after irradiation): 80% | viability at 5000 µg/mL ([1]; 24 h after irradiation): 89% | viability at 10000 µg/mL ([1]; 24 h after irradiation): 116% | viability at 15000 µg/mL ([1]; 24 h after irradiation): 112% | growth or regenerative effect on stressed cells (in words) ([1]; viability increased in time after UV): growth or regenerative effect | preservative/protective effect against oxidative stress (in words) ([2]; 5 to 15 mg/ml): preservative/protective effect against oxidative stress which is dose dependant | viability at 5000 µg/mL ([2]; 1 h after 100 μM H2O2): 89 ± 2.7% | viability at 10000 µg/mL ([2]; 1 h after 100 μM H2O2): 99 ± 0.5% | viability at 15000 µg/mL ([2]; 1 h after 100 μM H2O2): 110 ± 2% | viability at 5000 µg/mL ([2]; 24 h after 100 μM H2O2): 109 ± 2.2% | viability at 10000 µg/mL ([2]; 24 h after 100 μM H2O2): 120 ± 2.1% | viability at 15000 µg/mL ([2]; 24 h after 100 μM H2O2): 127 ± 5.8% | growth/regenerative effect on stressed cells (in words) ([2]; viability increased in time after H2O2): growth/regenerative effect | viability at 10000 µg/mL ([3]; RPMI-2650, D4 after serum deprivation): 52 ± 4.64% | viability at 10000 µg/mL ([3]; RPMI-2650, D6 after serum deprivation): 26% | preservative/protective effect on human nasal epithelial cells (in words) ([3]; starvation medium, 10 mg/ml): preservative/protective effect | Percentage of viability ([4]; D 1 after serum deprivation): 73% | Percentage of viability ([4]; D 7 after serum deprivation): 50% | viability at 5000 µg/mL ([4]; D 1 after serum deprivation): 73 to 87% | viability at 5000 µg/mL ([4]; D 4 after serum deprivation): 57% | viability at 5000 µg/mL ([4]; D 7 after serum deprivation): 45 to 50% | preservative/protective effect on skin fibroblasts (in words) ([4]; starvation medium): significant preservative/protective effect
